From the CheMixHub viscosity set
Values joined by “and” are separate entries in the source; they are usually repeats but may differ in a detail not shown here. Equal values may be shown once. ± gives the uncertainty stated by the source.

Assay: xn = mol fraction of the nth substance listed

Cc1cccc(C)c1 + COCCO
viscosity [mPa·s], 101 kPa
Settings	298.15 K	308.15 K
x2 = 0.0519	0.598 ± 0.011	0.513 ± 0.01
x2 = 0.1498	0.635 ± 0.011	0.543 ± 0.01
x2 = 0.2504	0.681 ± 0.012	0.58 ± 0.011
x2 = 0.3476	0.737 ± 0.013	0.624 ± 0.011
x2 = 0.452	0.81 ± 0.014	0.68 ± 0.012
x2 = 0.4991	0.848 ± 0.014	0.709 ± 0.013
x2 = 0.5538	0.897 ± 0.015	0.746 ± 0.013
x2 = 0.6476	0.996 ± 0.017	0.819 ± 0.014
x2 = 0.7504	1.127 ± 0.019	0.915 ± 0.016
x2 = 0.8491	1.282 ± 0.021	1.026 ± 0.017
x2 = 0.9558	1.491 ± 0.024	1.172 ± 0.02

Nc1ccccc1Cl + COCCO
303.15 K, 101 kPa
Settings	viscosity [mPa·s]
x1 = 0.093	2.184 ± 0.56
x1 = 0.157	2.388 ± 0.61
x1 = 0.2242	2.597 ± 0.66
x1 = 0.3168	2.811 ± 0.72
x1 = 0.415	3.024 ± 0.77
x1 = 0.5093	3.223 ± 0.82
x1 = 0.6253	3.414 ± 0.87
x1 = 0.7713	3.581 ± 0.91
x1 = 0.8914	3.711 ± 0.95

O=S1(=O)CCCC1 + COCCO
303.15 K, 101 kPa
Settings	viscosity [mPa·s]
x1 = 0.0483	1.2 ± 0.01
x1 = 0.0994	1.054 ± 0.009
x1 = 0.1962	1.489 ± 0.013
x1 = 0.2953	2.053 ± 0.018
x1 = 0.3486	2.251 ± 0.02
x1 = 0.4007	2.703 ± 0.024
x1 = 0.4569	3.258 ± 0.03
x1 = 0.4997	3.863 ± 0.036
x1 = 0.5991	4.997 ± 0.048
x1 = 0.7126	6.301 ± 0.063
x1 = 0.7971	7.413 ± 0.076
x1 = 0.8496	8.345 ± 0.087
x1 = 0.8986	9.013 ± 0.096

Nc1ccccc1Cl + COc1ccccc1
viscosity [mPa·s], 101 kPa
Settings	x2 = 0.1009	x2 = 0.1969	x2 = 0.2948	x2 = 0.3986	x2 = 0.4961	x2 = 0.5977	x2 = 0.6935	x2 = 0.7952	x2 = 0.9001
298.15 K	2.72 ± 0.026	2.454 ± 0.024	2.19 ± 0.021	1.958 ± 0.019	1.746 ± 0.017	1.566 ± 0.015	1.404 ± 0.013	1.27 ± 0.012	1.124 ± 0.01
303.15 K	2.42 ± 0.024	2.196 ± 0.021	1.969 ± 0.019	1.762 ± 0.017	1.583 ± 0.015	1.427 ± 0.014	1.285 ± 0.012	1.156 ± 0.011	1.044 ± 0.0099
308.15 K	2.162 ± 0.021	1.971 ± 0.019	1.772 ± 0.017	1.595 ± 0.015	1.438 ± 0.014	1.302 ± 0.012	1.176 ± 0.011	1.064 ± 0.01	0.9578 ± 0.0093
313.15 K	1.939 ± 0.019	1.773 ± 0.017	1.6 ± 0.015	1.446 ± 0.014	1.309 ± 0.013	1.189 ± 0.011	1.08 ± 0.01	0.9804 ± 0.0095	0.8856 ± 0.0089

Cc1ccc(O)cc1 + CS(C)=O
viscosity [mPa·s], 101 kPa
Settings	x1 = 0.0702	x1 = 0.1453	x1 = 0.2257	x1 = 0.3119	x1 = 0.4047	x1 = 0.505	x1 = 0.5778	x1 = 0.7312	x1 = 0.8595
303.15 K	2.036 ± 0.049	2.307 ± 0.053	2.913 ± 0.062	3.456 ± 0.068	4.277 ± 0.076	5.056 ± 0.081	6.524 ± 0.094	7.908 ± 0.091	9.499 ± 0.087
308.15 K	1.792 ± 0.044	2.04 ± 0.047	2.565 ± 0.055	3.062 ± 0.06	3.709 ± 0.066	4.324 ± 0.069	5.403 ± 0.078	6.543 ± 0.076	7.655 ± 0.071
313.15 K	1.604 ± 0.039	1.833 ± 0.042	2.293 ± 0.049	2.698 ± 0.053	3.24 ± 0.058	3.769 ± 0.06	4.649 ± 0.068	5.745 ± 0.067	6.083 ± 0.057
318.15 K	1.476 ± 0.036	1.668 ± 0.038	2.054 ± 0.044	2.417 ± 0.047	2.857 ± 0.051	3.328 ± 0.053	4.01 ± 0.058	4.945 ± 0.058	5.111 ± 0.049

Cc1cccc(C)c1 + CS(C)=O
viscosity [mPa·s], 101.3 kPa
Settings	x2 = 0.1004	x2 = 0.2027	x2 = 0.3047	x2 = 0.4044	x2 = 0.5057	x2 = 0.6045	x2 = 0.705	x2 = 0.803	x2 = 0.9011
298.15 K	0.631 ± 0.017	0.7 ± 0.019	0.782 ± 0.02	0.877 ± 0.022	0.99 ± 0.025	1.116 ± 0.028	1.269 ± 0.031	1.45 ± 0.035	1.68 ± 0.04
303.15 K	0.593 ± 0.016	0.657 ± 0.018	0.73 ± 0.019	0.815 ± 0.021	0.914 ± 0.023	1.026 ± 0.026	1.168 ± 0.029	1.325 ± 0.032	1.528 ± 0.037
308.15 K	0.561 ± 0.015	0.617 ± 0.017	0.684 ± 0.018	0.76 ± 0.02	0.85 ± 0.022	0.952 ± 0.024	1.076 ± 0.027	1.219 ± 0.03	1.397 ± 0.034

Cc1ccc(O)cc1 + C[N+](C)(C)CCO.[Cl-]
Settings	viscosity
293.15 K, 101 kPa, x2 = 0.333	133.7 ± 3.3 mPa·s
298.15 K, 101 kPa, x2 = 0.333	102 ± 2.4 mPa·s
298.15 K, 101.33 kPa, x1 = 0.7	138.7 ± 52 mPa·s
298.15 K, 101.33 kPa, x1 = 0.8	75.19 ± 22 mPa·s and 55.19 ± 14 mPa·s and 47.26 ± 11 mPa·s
298.15 K, 101.33 kPa, x1 = 0.9	41.11 ± 8.9 mPa·s
303.15 K, 101 kPa, x2 = 0.333	75.5 ± 1.6 mPa·s
308.15 K, 101 kPa, x2 = 0.333	58.57 ± 1.2 mPa·s
313.15 K, 101 kPa, x2 = 0.333	45.82 ± 0.98 mPa·s
318.15 K, 101 kPa, x2 = 0.333	36.17 ± 0.77 mPa·s
323.15 K, 101 kPa, x2 = 0.333	28.83 ± 0.62 mPa·s

O=C[C@H](O)[C@H](O)[C@H](O)CO + C[N+](C)(C)CCO.[Cl-]
100 kPa, x2 = 0.6
Settings	viscosity [mPa·s]
313.2 K	575.5 ± 30
318.2 K	374.3 ± 19
